{"source": "patent US20140096284A1", "about": "“METHOD FOR THE DELIVERY OF MOLECULES LYOPHILIZED ONTO MICROPARTICLES TO PLANT TISSUES” (priority 2012, published 2014)", "key": {"[1]": {"system": "onion epidermis tissue", "assay": "Control: solution deposited or incubated on onion epidermis tissue without coated projectiles", "type": "cell-based", "conditions": "solution on the surface of onion epidermis tissue", "description": "The dye bromophenol blue was used to test the ability of the system to deliver a chemical. As a control, a saturated solution of the dye (10 μL of a 100 μg μL^−1 mg) was deposited with a pipette on top of onion epidermis tissue. […] For the bromophenol blue delivery, the saturated solution was mixed with 0.6 μm gold microcarriers and an aliquot was deposited over a macrocarrier set. This macrocarrier set was frozen in liquid nitrogen for 5-10 minutes and then lyophilized for an hour using a lyophilizer. This macrocarrier set was subsequently used to bombard onion epidermis tissue. […] The amount of dye delivered to each cell was different, and as a consequence, different shades of purple could be observed in the bombarded tissue (FIG. 3C).\nProtein delivery can be considered a difficult challenge because proteins could be subjected to denaturation during the delivery process. […] This protein will not fluoresce if denatured (Ward and Bokman, 1982). As a control, to test if the protein could be diffused into plant cells, 10 μL of a 100 ng/μL eGFP solution were incubated for 30 minutes on the surface of intact onion epidermis tissue or bombarded with bare 0.6 μm gold microparticles. […] Lyophilization of eGFP onto 0.6 μm gold microcarriers was done using 2.5 μL of 1 μg μL^−1 solution of the protein and 60 μg of microcarriers per shot."}, "[2]": {"system": "onion epidermis tissue", "assay": "Biolistic delivery of molecules lyophilized onto 0.6 μm gold microcarriers to onion epidermis tissue", "type": "cell-based", "conditions": "lyophilized onto 0.6 μm gold, observed about 30 minutes after bombardment", "description": "2 μL of 0.6 μm gold particle stock was mixed with 1 μg of GFP plasmid pLMNC95 or 2 μL of a 400 ng/μL, TRITC-BSA solution. The mixture was poured on a macrocarrier, frozen in liquid nitrogen and freeze-dry for 1 hour prior to onion epidermis tissue bombardment.\nOnion epidermis tissue was obtained from the scale leaves of white onion bulbs. Rectangular (3×2.5 cm) pieces were peeled right before the bombardment and placed in solid agar media (0.5 mM of 2-(N-morpholino)ethanesulfonic acid (MES), 15 g L^−1 Bacto agar (BD), pH 5.7) with the peeled side upwards. For quantitative measurements, epidermis pieces of the same scale leaf were distributed among treatments. Tobacco leaves (Nicotiana tabacum var. Petite Havana) were obtained from 3-6 week old in vitro grown plants on MS media (MS medium (Murashige and Skoog, 1962), 2% sucrose, 2.5 g L^−1 gelrite, pH 5.7). Leaves were cut right before bombardment and put with the adaxial surface up on agar media. Hill maize immature embryos were obtained from immature ears provided by the Center for Plant Transformation—Iowa State University. […]\nBright field and fluorescence images were taken using a Zeiss Axio star plus microscope. […] For the green channel fluorescence images a GFP BP filter (Chroma Technology Corp.) was used (λex=470 nm, beam splitter=495 nm and λem=525 nm). […]"}, "[3]": {"system": "onion epidermis tissue", "assay": "Fluorescein diacetate staining, count of dead cells after bombardment", "type": "cell-based", "conditions": "250 μg per shot", "description": "Onion epidermis tissues were submerged in 10 mL of MS liquid media to which 100 μL of a 5 mg mL^−1 of fluorescein diacetate (Alfa Aesar) solution in acetone were added. The samples were incubated for 2-5 minutes and directly observed under the green channel filter of the fluorescence microscope. For quantitative measurements, 12 images (10.5×8 mm) were taken with the 5× microscope objective scattered every 0.5 cm (4 columns×3 rows). The total amount of dead cells found on each image was counted.\nThe high concentration of protein used per shot (250 μg per shot) and the lyophilization process could cause cell death by: (1) physical damage of the potential clumps produced after lyophilizing protein and microparticles and (2) excess of intracellular protein delivery reaching toxic levels. To assess cellular death, onion epidermis tissues were stained with fluorescein diacetate, which stains in fluorescent green the living cells, while the dead ones remain dark (FIG. 7A). […]\nAs another example of active enzyme delivery, trypsin and RNAse A were chosen. […] The number of dead cells was measured using fluorescein diacetate staining in samples not bombarded, bombarded only with 0.6 μm gold or with 200 μg of trypsin or 40 μg of RNAse per shot. […]"}, "[4]": {"system": "maize immature embryos", "assay": "Biolistic delivery of molecules lyophilized onto 0.6 μm gold to maize immature embryos", "type": "cell-based", "conditions": "250 μg per shot lyophilized onto 0.6 μm gold; maize Hi II immature embryo scutella", "description": "(§1) Onion epidermis tissue was obtained from the scale leaves of white onion bulbs. Rectangular (3×2.5 cm) pieces were peeled right before the bombardment and placed in solid agar media (0.5 mM of 2-(N-morpholino)ethanesulfonic acid (MES), 15 g L^−1 Bacto agar (BD), pH 5.7) with the peeled side upwards. For quantitative measurements, epidermis pieces of the same scale leaf were distributed among treatments. Tobacco leaves (Nicotiana tabacum var. Petite Havana) were obtained from 3-6 week old in vitro grown plants on MS media (MS medium (Murashige and Skoog, 1962), 2% sucrose, 2.5 g L^−1 gelrite, pH 5.7). Leaves were cut right before bombardment and put with the adaxial surface up on agar media. Hill maize immature embryos were obtained from immature ears provided by the Center for Plant Transformation—Iowa State University. Immature embryos (1-2 mm long) were cultured as previously described (Frame et al., 2000).\n(§2) The saturated solutions of chemical or biomolecules used were done as follows (data per shot): for bromophenol blue (Sigma) delivery 10 μL of a 100 μg 1 μL^−1 mg solution were used. For plasmid DNA delivery, 2 μL of a 500 ng μL^−1 solution of the plasmid pLMNC95 (Luke Mankin and Thompson, 2001) were used for GFP expression. For mCherry expression linear dsDNA, the plasmid ER-rk (Nelson et al., 2007) was digested with the restriction enzymes SacI-HindIII. […]"}, "[5]": {"system": "tobacco leaf cells", "assay": "Biolistic delivery of molecules lyophilized onto 0.6 μm gold to tobacco leaf tissue", "type": "cell-based, Nicotiana tabacum var. Petite Havana", "conditions": "250 μg per shot lyophilized onto 0.6 μm gold; tobacco leaves", "description": "as §1, §2"}}, "data": [{"compound": "O=S1(=O)OC(c2cc(Br)c(O)c(Br)c2)(c2cc(Br)c(O)c(Br)c2)c2ccccc21", "note": "[bromophenol blue, reference compound]", "values": [{"measurement": "permeation or diffusion into cells without coated projectiles", "setting": "[1]", "result": "did not permeate"}, {"measurement": "intracellular delivery after bombardment", "setting": "[2]", "result": "several cells were showing bluish-purple coloration"}]}, {"compound": "tetramethylrhodamine isothiocyanate labeled bovine serum albumin [TRITC-BSA]", "values": [{"measurement": "intracellular delivery after bombardment", "setting": "[2]", "result": "successfully delivered"}, {"measurement": "number of dead cells compared with bombardment without the protein", "setting": "[3]; 1 day after bombardment, differences were not significant", "result": "higher"}, {"measurement": "viability of cells showing protein delivery", "setting": "[3]; stained 1 day after bombardment", "result": "most of the cells showing TRITC-BSA delivery were alive"}, {"measurement": "protein delivery (red fluorescence)", "setting": "[4]", "result": "delivery could be observed"}, {"measurement": "protein delivery (red fluorescence)", "setting": "[5]", "result": "delivery could be observed"}]}]}
